Earlier results as cited in patent US11033512B2, “Transdermal therapeutic system containing asenapine and silicone acrylic hybrid polymer” (LTS LOHMANN Therapie-Systeme AG, priority 2017, dated 2021).

Columns and labels:
[1] = target: serotonin 5-HT2A receptors (Homo sapiens, UniProt P28223)
Chain of serotonin 5-HT2A receptors (P28223 whole entry): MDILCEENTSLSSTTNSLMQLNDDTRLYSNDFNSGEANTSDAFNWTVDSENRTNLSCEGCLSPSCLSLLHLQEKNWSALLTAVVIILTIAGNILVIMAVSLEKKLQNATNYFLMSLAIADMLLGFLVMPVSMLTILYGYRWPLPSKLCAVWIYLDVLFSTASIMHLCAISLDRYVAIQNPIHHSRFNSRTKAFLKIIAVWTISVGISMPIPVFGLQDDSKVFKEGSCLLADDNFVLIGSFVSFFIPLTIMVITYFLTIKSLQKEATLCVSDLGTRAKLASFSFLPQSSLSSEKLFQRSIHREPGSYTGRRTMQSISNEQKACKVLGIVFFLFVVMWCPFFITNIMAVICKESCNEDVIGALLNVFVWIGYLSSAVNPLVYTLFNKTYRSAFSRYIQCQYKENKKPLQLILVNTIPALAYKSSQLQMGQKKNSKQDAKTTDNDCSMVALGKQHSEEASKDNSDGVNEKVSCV

In the case of `CN1C[C@H]2c3ccccc3Oc3ccc(Cl)cc3[C@@H]2C1` (relative stereo) [asenapine, (3aRS,12bRS)-rel-5-chloro-2,3,3a,12b-tetrahydro-2-methyl-1H-dibenz[2,3:6,7]oxepino[4,5-c]pyrrole], the affinity [1] is listed as “high affinity”, the “time of peak blood plasma concentrations” value (following sublingual administration) is listed as 0.5 to 1.5 h and the terminal disposition half-life (following sublingual administration, therapeutic doses) is listed as ≥ 24 h. The bioavailability (if ingested) was < 2%.
